Where “and” joins values, the source holds several entries; their conditions need not be identical. Identical values can stand only once.
How the values were obtained:
MDR-1 [1] = assay: MDR-1 (PGP) protein levels in probands upon induction by rifampicine, immunohistochemical detection; type: in vivo, human; settings: for PGP concentration, mean / PGP concentration: rifampicine-induced probands; for PGP concentration: individual probands
Procedure: The expression levels of MDR-1 in the colon and liver of these patients was also estimated by established immunohistochemical detection of the MDR-1 protein. In the proband population, in addition to measurements of the expression levels of MDR-1 in the colon, measurements of MDR-1 upon induction of the gene by rifampicine were performed. Also, the in vivo activity of MDR-1 under noninduced and rifampicine induced conditions was determined by measuring the blood concentrations of orally administered digoxin (1 mg), which is a known MDR-1 substrate and whose blood concentration also depends on the MDR-1 activity in the colon.

[2] = digoxin maximum plasma concentration (Cmax) at steady state after oral application, by MDR-1 exon 26 genotype; type: in vivo, human; settings: 7 T/T vs 7 C/C volunteers, T/T higher, p=0.006
Procedure: For a further validation of the correlation of MDR-1 genotype with intestinal digoxin uptake, additional volunteers of another clinical study at the University Medical Center, Charite in Berlin that addresses blood levels of digoxin after oral application (without rifampin induction and PGP protein determination, Johne et al. (1999), Clin.
In this study, maximum plasma concentrations (Cmax) were evaluated during steady state conditions of digoxin.

MDR-1 [3] = molecular target: T1, MDR-1 (Homo sapiens, UniProt P08183); assay: clinical; set-up: from tissue; host or cells: colon (intestine) of human probands, in vivo; settings: in vivo, po, 1 mg, digoxin concentration in blood (Dig AUC)
Source text: To identify potential direct correlations of MDR-1 polymorphisms with clinical relevant phenotypes in humans, probands from a study at the Dr. Margarete Fischer-Bosch-Institut for Clinical Pharmacology in Stuttgart, were subjected to the determination of MDR-1 polymorphisms as described in examples 2-4. The expression levels of MDR-1 in the colon and liver of these patients was also estimated by established immunohistochemical detection of the MDR-1 protein. In the proband population, in addition to measurements of the expression levels of MDR-1 in the colon, measurements of MDR-1 upon induction of the gene by rifampicine were performed. Also, the in vivo activity of MDR-1 under noninduced and rifampicine induced conditions was determined by measuring the blood concentrations of orally administered digoxin (1 mg), which is a known MDR-1 substrate and whose blood concentration also depends on the MDR-1 activity in the colon. The results of the MDR-1 measurements, rifampicine induction experiments and digoxin-experiments, as well as results from the MDR-1 polymorphism detection analysis in the proband population show correlations between MDR-1 gene expression and MDR-1 in vivo activity with certain polymorphisms. […]

MDR-1 [4] = molecular target: T1, MDR-1; assay: clinical; set-up: The expression levels of MDR-1 in the colon and liver of these patients was also estimated by established immunohistochemical detection; from tissue; host or cells: colon (intestine) of human probands, in vivo; settings: in vivo
Source text: To identify potential direct correlations of MDR-1 polymorphisms with clinical relevant phenotypes in humans, probands from a study at the Dr. Margarete Fischer-Bosch-Institut for Clinical Pharmacology in Stuttgart, were subjected to the determination of MDR-1 polymorphisms as described in examples 2-4. The expression levels of MDR-1 in the colon and liver of these patients was also estimated by established immunohistochemical detection of the MDR-1 protein. In the proband population, in addition to measurements of the expression levels of MDR-1 in the colon, measurements of MDR-1 upon induction of the gene by rifampicine were performed. Also, the in vivo activity of MDR-1 under noninduced and rifampicine induced conditions was determined by measuring the blood concentrations of orally administered digoxin (1 mg), which is a known MDR-1 substrate and whose blood concentration also depends on the MDR-1 activity in the colon. The results of the MDR-1 measurements, rifampicine induction experiments and digoxin-experiments, as well as results from the MDR-1 polymorphism detection analysis in the proband population show correlations between MDR-1 gene expression and MDR-1 in vivo activity with certain polymorphisms.
This was done by measuring the blood concentrations of orally administered digoxin which is a known MDR-1 substrate and whose blood concentration also depends on the MDR-1 activity in the colon. […] The probands that harbor the T allele (correlates with weaker MDR-1 expression, see Tab. 4), contain higher blood levels of digoxin compared to samples which have only the corresponding homozygous C-allele. […] This is totally consistent with the function of MDR-1 in the colon, i.e. re-transport and elimination of substrates from the uptaking cells into the lumen of the colon. […] The difference of the digoxin blood levels between these individuals was more than 4-fold.

[5] = Phenytoin blood levels in patients by 2C9/2C19 and MDR-1 exon 26 (C3435T) genotype; type: in vivo, human

T1 sequence (P08183 whole entry): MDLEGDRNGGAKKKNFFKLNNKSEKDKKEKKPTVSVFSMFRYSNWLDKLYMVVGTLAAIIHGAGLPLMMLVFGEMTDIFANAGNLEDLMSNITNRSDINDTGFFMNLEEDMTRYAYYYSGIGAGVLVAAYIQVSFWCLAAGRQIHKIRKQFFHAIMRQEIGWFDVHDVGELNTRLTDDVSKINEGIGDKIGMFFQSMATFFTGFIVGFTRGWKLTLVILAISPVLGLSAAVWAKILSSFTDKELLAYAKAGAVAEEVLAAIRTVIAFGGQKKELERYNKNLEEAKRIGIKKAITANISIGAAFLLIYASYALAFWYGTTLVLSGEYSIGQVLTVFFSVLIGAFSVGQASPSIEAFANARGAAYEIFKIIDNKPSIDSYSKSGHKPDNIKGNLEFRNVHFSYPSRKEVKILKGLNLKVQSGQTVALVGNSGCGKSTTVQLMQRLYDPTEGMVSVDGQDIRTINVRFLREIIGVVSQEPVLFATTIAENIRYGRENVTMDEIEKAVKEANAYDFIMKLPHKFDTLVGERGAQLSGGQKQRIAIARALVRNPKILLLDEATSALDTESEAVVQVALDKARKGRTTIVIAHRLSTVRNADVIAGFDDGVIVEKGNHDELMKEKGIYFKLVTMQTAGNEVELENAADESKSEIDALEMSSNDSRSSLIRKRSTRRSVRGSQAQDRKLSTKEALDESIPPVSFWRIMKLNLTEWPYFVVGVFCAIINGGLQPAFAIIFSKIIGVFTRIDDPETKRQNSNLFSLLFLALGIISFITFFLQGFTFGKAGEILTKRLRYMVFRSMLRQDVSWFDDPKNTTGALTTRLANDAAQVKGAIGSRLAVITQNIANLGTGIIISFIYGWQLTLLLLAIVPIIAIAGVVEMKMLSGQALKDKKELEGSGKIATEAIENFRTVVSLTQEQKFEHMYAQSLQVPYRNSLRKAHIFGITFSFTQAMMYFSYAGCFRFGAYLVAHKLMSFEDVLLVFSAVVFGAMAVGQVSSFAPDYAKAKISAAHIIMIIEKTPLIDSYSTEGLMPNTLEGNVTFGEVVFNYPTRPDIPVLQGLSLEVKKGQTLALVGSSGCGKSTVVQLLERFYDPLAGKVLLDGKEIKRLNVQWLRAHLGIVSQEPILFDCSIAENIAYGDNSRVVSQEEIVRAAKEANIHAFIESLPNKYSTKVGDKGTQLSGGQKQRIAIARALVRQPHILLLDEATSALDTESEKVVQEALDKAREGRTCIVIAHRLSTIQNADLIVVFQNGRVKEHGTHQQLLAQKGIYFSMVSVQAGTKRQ

CO[C@H]1/C=C/O[C@@]2(C)Oc3c(C)c(O)c4c(O)c(c(/C=N/N5CCN(C)CC5)c(O)c4c3C2=O)NC(=O)/C(C)=C\C=C\[C@H](C)[C@H](O)[C@@H](C)[C@@H](O)[C@@H](C)[C@H](OC(C)=O)[C@@H]1C [rifampicine]
highest rif-induced activity (PGP concentration) (MDR-1 [1]; proband homozygous C/C at position 176): 1264.9
lowest rif-induced activity (PGP concentration) (MDR-1 [1]; proband homozygous T/T at position 176): 142.1
difference of induced MDR-1 expression levels between homozygous C and homozygous T proband (MDR-1 [1]; rifampicin-induced, highest (C/C) vs lowest (T/T) proband): 9 fold
PGP concentration, mean (MDR-1 [1]; T-allele absent (C/C only)): 924 relative units
PGP concentration, mean (MDR-1 [1]; T-allele present (T/T and T/C)): 587 relative units
PGP concentration (MDR-1 [1]; T-allele absent (C/C only)): 423 relative units and 1264 relative units and 1086 relative units
PGP concentration (MDR-1 [1]; T-allele present (T/T and T/C) at position 176 in exon 26): 142 relative units and 1085 relative units and 520 relative units and 601 relative units

C[C@H]1O[C@@H](O[C@H]2[C@@H](O)C[C@H](O[C@H]3[C@@H](O)C[C@H](O[C@H]4CC[C@@]5(C)[C@H](CC[C@@H]6[C@@H]5C[C@@H](O)[C@]5(C)[C@@H](C7=CC(=O)OC7)CC[C@]65O)C4)O[C@@H]3C)O[C@@H]2C)C[C@H](O)[C@@H]1O [digoxin]
mean difference in digoxin Cmax between T/T and C/C groups [2]: 38%
AUC (MDR-1 [3]): 63.6 ng·h/mL
difference of the digoxin blood levels between homozygous T and homozygous C proband (MDR-1 [4]): more than 4 fold
highest rif-induced dig blood level (MDR-1 [4]): 12.3
lowest rif-induced dig blood level (MDR-1 [4]): 57.3

O=C1NC(=O)C(c2ccccc2)(c2ccccc2)N1 [Phenytoin]
highest blood concentration, increase compared to the normal population ([5]; 2C9 deficient patient with low PGP (T/T) genotype, within a group of 100 patients): about twofold
Phenytoin blood levels ([5]; 2C9 normal metabolizers, MDR-1 genotype CC and CT (intestinal PGP high/medium)): normal
Phenytoin blood levels ([5]; 2C9 normal metabolizers, MDR-1 genotype TT (intestinal PGP low)): normal
Phenytoin blood levels ([5]; 2C9 weak and/or deficient metabolizers, MDR-1 genotype CC and CT (intestinal PGP high/medium)): high
Phenytoin blood levels ([5]; 2C9 weak and/or deficient metabolizers, MDR-1 genotype TT (intestinal PGP low)): VERY HIGH

— patent publication US20050227249A1, “Polymorphisms in the human MDR-1 gene and their use in diagnostic and therapeutic applications” (priority 1999, published 2005)
